# Data published in patent US8309558B2, “Compounds for the treatment of hepatitis C” (Bristol-Myers Squibb Company, priority 2008, dated 2012).
# Read-outs that look alike come from different tables or passages of the source.
# Columns and labels:
# HCV replicon cells = assay: HCV replicon FRET / luciferase assay (96-well plates); format: cell-based; conditions: Hepatitis C virus, HCV replicon, read-out: EC50
# Outline: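 Readout was NS3 protease cleavage of an EDANS/DABCYL FRET peptide (20 μM final) in lysed HCV replicon cells, or Renilla luciferase in reporter replicons. Background came from wells with the highest level of control protease inhibitor. EC50 marked the concentration giving 50% signal reduction.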
# [1] = target: T1, HCV NS5B RdRp genotype 1b (Hepatitis C virus genotype 1b, UniProt Q9WMX2); assay: Standard HCV NS5B RdRp enzyme assay; format: biochemical; conditions: HCV NS5B RdRp genotype 1b, read-out: IC50
# T1 construct: The protein was expressed with an 18 amino acid C-terminal truncation to enhance the solubility; made in house; host or cells: E. coli BL21(DE3), pET21a vector
# T1 sequence (Q9WMX2 2420-2992): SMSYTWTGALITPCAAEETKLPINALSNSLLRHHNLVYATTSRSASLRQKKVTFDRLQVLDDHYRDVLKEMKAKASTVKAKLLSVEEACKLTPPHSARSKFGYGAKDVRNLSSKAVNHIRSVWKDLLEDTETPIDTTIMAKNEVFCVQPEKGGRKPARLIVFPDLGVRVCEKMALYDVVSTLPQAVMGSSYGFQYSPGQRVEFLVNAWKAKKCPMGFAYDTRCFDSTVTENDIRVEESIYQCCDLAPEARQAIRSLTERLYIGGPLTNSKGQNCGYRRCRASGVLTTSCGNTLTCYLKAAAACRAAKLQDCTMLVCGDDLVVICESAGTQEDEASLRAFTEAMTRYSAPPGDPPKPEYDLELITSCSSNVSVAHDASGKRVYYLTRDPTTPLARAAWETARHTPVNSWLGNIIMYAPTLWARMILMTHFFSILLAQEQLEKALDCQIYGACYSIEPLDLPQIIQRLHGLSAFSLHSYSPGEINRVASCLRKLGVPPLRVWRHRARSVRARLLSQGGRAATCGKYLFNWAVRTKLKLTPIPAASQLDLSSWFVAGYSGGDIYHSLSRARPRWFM
# Outline: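 Radiometric SPA measuring 3H-UMP incorporation on polyA/biotin-oligo-dT12 (6 nM/180 nM), 0.29 μM total UTP. Enzyme: NS5B 1b lacking last 18 residues, 28 nM final, 30° C for 60 min in 20 mM Hepes pH 7.5, 2.5 mM MgCl2, 2% DMSO. IC50 from seven-point curves.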
# [2] = untitled table after Table 1b, values without asterisk
SMILES,EC50 (HCV replicon cells; Table 1a) [nM],IC50 ([1]; Table 1a) [nM],EC50 (HCV replicon cells; Table 1b) [nM],IC50 ([1]; Table 1b) [nM],further results
CNC(=O)c1c(-c2ccc(F)cc2)oc2ccc(-c3ccc(OC)nc3OC)cc12,> 1230,> 10000,,,
CNC(=O)c1c(-c2ccc(F)cc2)oc2ccc(-c3cccc(C(=O)Nc4ccc(OC)cc4)c3)cc12,< 250,< 250,,,
CNC(=O)c1c(-c2ccc(F)cc2)oc2ccc(-c3cccc(C(=O)NC(C)(C)CO)c3)cc12,< 250,< 250,,,
CNC(=O)c1c(-c2ccc(F)cc2)oc2ccc(-c3cccc(S(C)(=O)=O)c3)cc12,1000 to 10000,> 10000,,,
CNC(=O)c1c(-c2ccc(F)cc2)oc2ccc(-c3cccc(C(=O)NS(C)(=O)=O)c3)cc12,> 10000,250 to 1000,,,
CNC(=O)c1c(-c2ccc(F)cc2)oc2ccc(-c3ccc(CCC(=O)O)cc3)cc12,> 10000,1000 to 10000,,,
CNC(=O)c1c(-c2ccc(F)cc2)oc2ccc(-c3cc(OCc4nnc(C)o4)cc(C(=O)NCC(C)C)c3)cc12,,,1000 to 10000,< 250,
CCN1CCN(C(=O)c2cccc(-c3ccc4oc(-c5ccc(F)cc5)c(C(=O)NC)c4c3)c2)CC1,1000 to 10000,1000 to 10000,,,
CNC(=O)c1c(-c2ccc(F)cc2)oc2ccc(-c3cccc(C(=O)Nc4cccnc4)c3)cc12,< 250,< 250,,,
CNC(=O)c1c(-c2ccc(F)cc2)oc2ccc(-c3cc(C(=O)NC4(c5ccccn5)CC4)ccc3OCCN(C)C)cc12,,,< 250,< 250,
C#CCOc1cc(C(=O)NCC(C)C)cc(-c2ccc3oc(-c4ccc(F)cc4)c(C(=O)NC)c3c2)c1,,,1000 to 10000,1000 to 10000,
CNC(=O)c1c(-c2ccc(F)cc2)oc2ccc(-c3cc(OCCc4ccncc4)cc(C(=O)NCC(C)C)c3)cc12,,,> 500,< 250,
CNC(=O)c1c(-c2ccc(F)cc2)oc2ccc(-c3cc(C(=O)NC4(c5ncccn5)CC4)c(OC)cc3C)c(F)c12,,,< 250,< 250,
CNC(=O)c1c(-c2ccc(F)cc2)oc2ccc(-c3ccc(-c4cccc(CC#N)c4)c(C(=O)NCC(C)C)c3)cc12,,,< 250,< 250,
CNC(=O)c1c(-c2ccc(F)cc2)oc2ccc(-c3cc(C(=O)NC4(c5ccccc5)CC4)ccc3O)cc12,,,< 250,< 250,
CNC(=O)c1c(-c2ccc(F)cc2)oc2ccc(-c3ccc(C(=O)O)c(Cl)c3)cc12,> 10000,1000 to 10000,,,
CNC(=O)c1c(-c2ccc(F)cc2)oc2ccc(-c3cccc(-c4ccn[nH]4)c3)cc12,,,1000 to 10000,1000 to 10000,
CNC(=O)c1c(-c2ccc(F)cc2)oc2ccc(-c3cccc(C(=O)NC(CO)CO)c3)cc12,> 10000,1000 to 10000,,,
CNC(=O)c1c(-c2ccc(F)cc2)oc2ccc(-c3cc(OC)cc(C(=O)NCC(C)C)c3)cc12,,,250 to 1000,250 to 1000,
CNC(=O)c1c(-c2ccc(F)cc2)oc2ccc(-c3cccc(C(=O)N4CC[C@H](NC(C)=O)C4)c3)cc12 [drawing 622],,,,,EC50 (HCV replicon cells; [2]): 16100 nM; IC50 ([1]; untitled table after Table 1b): 7130 nM
CNC(=O)c1c(-c2ccc(F)cc2)oc2ccc(-c3cc(C(=O)NC4(c5ccccn5)CC4)ccc3OCCO)cc12,,,< 250,< 250,
CCNC(=O)C(C)(C)NC(=O)c1cccc(-c2ccc3oc(-c4ccc(F)cc4)c(C(=O)NC)c3c2)c1,250 to 1000,250 to 1000,,,
CNC(=O)c1c(-c2ccc(F)cc2)oc2ccc(-c3cccc(C(=O)NS(=O)(=O)c4ccccc4)c3)cc12,1000 to 10000,< 250,,,
CNC(=O)c1c(-c2ccc(F)cc2)oc2ccc(-c3cccc(C(=O)NC4(c5ccccn5)CC4)c3)cc12,< 250,< 250,,,
CNC(=O)c1c(-c2ccc(F)cc2)oc2ccc(-c3cccc(C(=O)Nc4ccccc4)c3)cc12,< 250,< 250,,,
CNC(=O)c1c(-c2ccc(F)cc2)oc2ccc(-c3cc(C(=O)NC4(C(=O)OC)CC4)ccc3C)cc12,,,< 250,< 250,
CNC(=O)c1c(-c2ccc(F)cc2)oc2ccc(-c3cccc(C(=O)NC4CCC(C)CC4)c3)cc12 (stereo not drawn),< 250,< 250,,,
CNC(=O)c1c(-c2ccc(F)cc2)oc2ccc(-c3cccc(C(=O)N4CCCC4C)c3)cc12 (stereo not drawn),1000 to 10000,250 to 1000,,,
CNC(=O)c1c(-c2ccc(F)cc2)oc2ccc(-c3ccc(Cl)c(C(=O)O)c3)cc12,> 10000,1000 to 10000,,,
CNC(=O)c1c(-c2ccc(F)cc2)oc2ccc(-c3ccc(C(=O)N(C)Cc4cccnc4)cc3)cc12 [drawing 620],,,,,EC50 (HCV replicon cells; [2]): 15100 nM; IC50 ([1]; untitled table after Table 1b): 9920 nM
